Experimental data: patent US20100075361A1, “METHODS OF GENERATING FLORESCENCE RESONANCE ENERGY TRANSFER (FRET) BETWEEN SEMICONDUCTOR QUANTUM DOTS AND FLUORESCENT DYES/PROTEINS VIA MULTI-PHOTON EXCITATION, ACHIEVING ZERO BACKGROUND OR DIRECT EXCITATION CONTRIBUTIONS TO THE FRET SIGNATURE” (Government of the United States of America the Secretary of …, priority 2008, published 2010)

Columns and labels:
HEK 293T/17 cells = test: Two-photon / one-photon fluorescence microscopy of cells incubated with QD-peptide conjugates; type: cell-based, human; details: two-photon excitation, 840 nm
Description: In the first exemplary embodiment, in regard to quantum dot peptide conjugates, cell penetrating peptide (CPP) was synthesized by Boc-solid phase peptide synthesis with the sequence (His)8-Trp-Gly-Leu-Ala-Aib-Ser-Gly-(Arg)8-amide, where Aib is the artificial residue alpha-amino isobutyric acid. The Cy3-labeled peptide was synthesized with the sequence, Ac-(His)6-Gly-Leu-Aib-[…]NH2, where Ac is an acetyl group at the N-terminus. This peptide was labeled with a maleimide-functionalized Cy3 at the cysteine residue. The polyhistidine sequences at the N-termini of the peptides allowed and/or caused their self-assembly on the QD surface. […]
Exemplary embodiments show a unique advantage of two-photon excitation to probe energy transfer between QDs and conjugated dye acceptors, while investigating the stability of self-assembled QD-peptide conjugates within cells using fluorescence microscopy. […]
Further, in the first exemplary embodiment, in regard to cell imaging, two-photon cell imaging is performed with a BIO-RAD MRC-1024 MP confocal system using ˜10 mW of 840 nm pulsed excitation (˜80 fs, 80 MHz) at the focal plane of a 60×, 0.9 NA water immersion objective microscope. […] DAPI fluorescence cross-talk was subtracted from the QD channel. […]

[1] = Two-photon action cross-section measurement, fluorescein as standard; type: physicochemical; details: Water, 800 nm
Description: Steady-state composite spectra collected from samples under two-photon excitation were deconvoluted to yield individual photoluminence (PL) contributions using the known spectral profiles of isolated QDs and Cy3 dye emissions (see FIG. 4A, FIG. 4B, FIG. 4C and FIG. 4D).
Table 1 contains data describing two-photon action cross-sections for QDs populations in water and toluene, characterized using fluorescein as a standard in aqueous buffer (φσ2p=36 GM at 800 nm and pH 13), Cy3, fluorescein and wild-type green fluorescent protein (GFP) (from reference 28). Although multi-photon absorption profiles are non-linear optical phenomena, the longer wavelength emitting QD populations show higher two-photon action cross-sections, consistent with the one-photon absorption behavior.

Substance | Cy3 fluorescence / FRET from QDs to Cy3 in cells (HEK 293T/17 cells) | Two-photon action cross-section [1] [GM]
Tf-Cy3: Cy3-labeled transferrin, endosomal marker, mixed with unlabeled CPP-QD, not bound to QDs | does not show any evidence of Cy3 fluorescence | 
Cy3 |  | <1
